Results published in patent publication US20230109708A1, “Cellular Uptake” (Axcess (UK) Ltd, priority 2020, published 2023).
Like-named read-outs stand apart in the source and are kept apart here.

Tests used:
Caco-2 cells [1] = assay: FITC-albumin uptake with chenodeoxycholate and EDTA, DTPA or EGTA, fluorescence microscope score (Example 9); assay type: cell-based; settings: 30 minutes; for enhancement of uptake over and above that seen with chenodeoxycholate alone: agent added at 1 mg/ml to chenodeoxycholate; for fluorescence score, uptake of FITC-albumin: EDTA, DTPA or EGTA 1 mg/ml where present
Caco-2 cells [2] = test system: Caco-2 cells
Caco-2 cells [3] = assay: Uptake of FITC-insulin into Caco-2 cells, confocal microscope (Example 1); assay type: cell-based; settings: for uptake of FITC-insulin into cells (photomicrographs): FITC-insulin 100 ug/ml alone or with sodium chenodeoxycholate 1 or 2 mg/ml, 37° C. half an hour
Procedure: The supernatant was then removed, replaced with 0.5 ml of 4% paraformaldehyde solution, and incubated at room temperature for 15 minutes. The paraformaldehyde was then removed, the wells were washed three times with phosphate-buffered saline, and the coverslips then treated with mounting medium and viewed under a confocal microscope. Images are set out in FIG. 1.

Caco-2 cells [4] = settings: for enhancement of uptake of the protein (FITC-albumin): chenodeoxycholate 0.5 mg/ml, EDTA or orthophenanthroline 5 mg/ml, alone or in combination
Caco-2 cells [5] = assay: FITC-albumin uptake after chlorpromazine preincubation, fluorescence microscope score (Example 4); assay type: cell-based; set-up: fluorescence score, uptake of FITC-albumin: key to the marks not given beside the values; settings: for effect of preincubation with inhibitor on chenodeoxycholate-stimulated uptake of FITC-albumin: preincubation ten minutes, amiloride and nystatin in similar experiments
Caco-2 cells [6] = assay: Uptake of FITC-albumin or FITC-Casein with chenodeoxycholate, fluorescence microscope score (Example 6); assay type: cell-based; settings: FITC-labelled protein 100 ug/ml with chenodeoxycholate
Text: The experiment was repeated on two separate occasions on different days.

IEC6 cell line = settings: chenodeoxycholate 0.5 mg/ml; different concentrations of EDTA; 15 minutes
Caco-2 cells [7] = test system: Caco-2 cells; set-up: key to the marks not given beside the values; settings: twenty minutes, PG 2:1 wt:wt where present
Caco-2 cells [8] = settings: chenodeoxycholate and EDTA alone or in combination at 1 mg/ml; 15 minutes; cells in suspension
Caco-2 cells [9] = assay: FITC-hGH uptake with chenodeoxycholate, cells in suspension, plate reader (Example 13); assay type: cell-based; settings: FITC-hGH 100 ug/ml; chenodeoxycholate at different concentrations; 15 minutes
Procedure: 1 ml of FITC-hGH alone (concentration 100 ug/ml) or FITC-hGH containing chenodeoxycholate at different concentrations were then added.

[10] = column Concentration of Chenodeoxycholate 0.5 mg/ml, sample alone, no preincubation
[11] = column Concentration of Chenodeoxycholate 1.0 mg/ml, sample alone, no preincubation
[12] = column Concentration of Chenodeoxycholate 1.5 mg/ml, sample alone, no preincubation

Compound: O=C(O)CN(CCN(CC(=O)O)CC(=O)O)CCN(CC(=O)O)CC(=O)O [DTPA]
- enhancement of uptake over and above that seen with chenodeoxycholate alone (Caco-2 cells [1]): not

Compound: C[C@H](CCC(=O)O)[C@H]1CC[C@H]2[C@@H]3[C@@H](O)C[C@@H]4C[C@H](O)CC[C@]4(C)[C@H]3CC[C@]12C [Urso, sodium ursodeoxycholate]
- fluorescence score, uptake of FITC-albumin (Caco-2 cells [2]; Urso preincubation 0.1 mg/ml, Chenodeoxycholate 0.5 mg/ml): −
- fluorescence score, uptake of FITC-albumin (Caco-2 cells [2]; Urso preincubation 0.1 mg/ml, Chenodeoxycholate 1.0 mg/ml): ++
- fluorescence score, uptake of FITC-albumin (Caco-2 cells [2]; Urso preincubation 0.1 mg/ml, Chenodeoxycholate 1.5 mg/ml): ++
- fluorescence score, uptake of FITC-albumin (Caco-2 cells [2]; Urso preincubation 0.5 mg/ml, Chenodeoxycholate 0.5 mg/ml): −
- fluorescence score, uptake of FITC-albumin (Caco-2 cells [2]; Urso preincubation 0.5 mg/ml, Chenodeoxycholate 1.0 mg/ml): +
- fluorescence score, uptake of FITC-albumin (Caco-2 cells [2]; Urso preincubation 0.5 mg/ml, Chenodeoxycholate 1.5 mg/ml): ++
- fluorescence score, uptake of FITC-albumin (Caco-2 cells [2]; [10]): −
- fluorescence score, uptake of FITC-albumin (Caco-2 cells [2]; [11]): −
- fluorescence score, uptake of FITC-albumin (Caco-2 cells [2]; [12]): −
- effect of preincubation on chenodeoxycholate-stimulated uptake of FITC-albumin (Caco-2 cells [2]; preincubation ten minutes): concentration-dependent inhibition of uptake

Compound: insulin: FITC-insulin, fluorescent labelled protein cargo
- uptake of FITC-insulin into cells (photomicrographs) (Caco-2 cells [3]): very little uptake

Compound: c1cnc2c(c1)ccc1cccnc12 [o-phenanthroline]
- enhancement of uptake of the protein (FITC-albumin) (Caco-2 cells [4]): does not have this effect

Compound: CN(C)CCCN1c2ccccc2Sc2ccc(Cl)cc21 [Chlorpromazine, chlorpromazine]
- fluorescence score, uptake of FITC-albumin (Caco-2 cells [5]; 5000 ug/mL): ++
- effect of preincubation with inhibitor on chenodeoxycholate-stimulated uptake of FITC-albumin (Caco-2 cells [5]): concentration-dependent inhibition of uptake

Compound: Casein
- extent of chenodeoxycholate-mediated uptake of the protein (Caco-2 cells [6]): uptake of a similar extent

Compound: C[C@@H]1[C@H](O)[C@@H](C)/C=C/C=C/CC/C=C/C=C/C=C/C=C/C(O[C@H]2O[C@H](C)[C@@H](O)[C@H](N)[C@@H]2O)CC2O[C@](O)(CC(O)C(O)CCC(O)CC(O)CC(O)CC(=O)O[C@H]1C)CC(O)C2C(=O)O (some centres unmarked) [nystatin]
- effect of preincubation with inhibitor on chenodeoxycholate-stimulated uptake of FITC-albumin (Caco-2 cells [5]): no reduction in uptake

Compound: N=C(N)NC(=O)c1nc(Cl)c(N)nc1N [amiloride]
- effect of preincubation with inhibitor on chenodeoxycholate-stimulated uptake of FITC-albumin (Caco-2 cells [5]): no reduction in uptake

Compound: O=C(O)CN(CCN(CC(=O)O)CC(=O)O)CC(=O)O [EDTA]
- enhancement of uptake of BSA by chenodeoxycholate in IEC6 cells (IEC6 cell line): augmented by EDTA in a dose-dependent fashion

Compound: C[C@H](CCC(=O)O)[C@H]1CC[C@H]2[C@@H]3[C@H](O)C[C@@H]4C[C@H](O)CC[C@]4(C)[C@H]3CC[C@]12C [Cheno alone, sodium chenodeoxycholate]
- uptake of FITC-insulin into cells (photomicrographs) (Caco-2 cells [3]): uptake is enhanced
- fluorescent material in vacuoles within the cells (Caco-2 cells [3]; FITC-insulin 100 ug/ml, higher concentration of the bile salt (2 mg/ml)): clearly being seen in vacuoles within the cells
- fluorescence score, uptake of FITC-albumin (Caco-2 cells [7]; Concentration of Bile Salt 1.0 mg/ml): ++
- fluorescence score, uptake of FITC-albumin (Caco-2 cells [7]; Concentration of Bile Salt 1.5 mg/ml): +++
- fluorescence score, uptake of FITC-albumin (Caco-2 cells [2]; [10]): +
- fluorescence score, uptake of FITC-albumin (Caco-2 cells [2]; [11]): +++
- fluorescence score, uptake of FITC-albumin (Caco-2 cells [2]; [12]): +++
- enhancement of uptake of FITC-albumin (Caco-2 cells [8]): too low to enhance uptake
- fluorescence score, uptake of FITC-albumin (Caco-2 cells [1]; Chenodeoxycholate 0.5 mg/ml): +
- fluorescence score, uptake of FITC-albumin (Caco-2 cells [1]; Chenodeoxycholate 1 mg/ml): ++
- uptake of hGH (FITC-hGH) into cells (Caco-2 cells [9]): enhances the uptake of hGH into cells in a dose-dependent manner
- fluorescence score, uptake of FITC-albumin (Caco-2 cells [5]; Cheno 1.0 mg/ml, Chlorpromazine 0 mg/ml): +++
- fluorescence score, uptake of FITC-albumin (Caco-2 cells [5]; Cheno 1.5 mg/ml, Chlorpromazine 0 mg/ml): ++
- fluorescence score, uptake of FITC-albumin (Caco-2 cells [4]; Chenodeoxycholate 0.5 mg/ml, EDTA or orthophenanthroline 5 mg/ml where present, twenty-five minutes): +
- enhancement of uptake of the protein (FITC-albumin) (Caco-2 cells [4]): neither chenodeoxycholate nor EDTA were able to enhance uptake

Compound: O=C(O)CN(CCOCCOCCN(CC(=O)O)CC(=O)O)CC(=O)O [EGTA]
- enhancement of uptake over and above that seen with chenodeoxycholate alone (Caco-2 cells [1]): not
